Assay results from US10130585B2, “Methods of treating and/or preventing cardiovascular disease” (Murray and Poole Enterprises Limited, priority 2013, dated 2018).

Tests used:
[1] = test system: patients with stable coronary disease; assay: LoDoCo Trial, colchicine 0.5 mg/day added to standard secondary prevention; format: in vivo, human
Protocol: This study is described in PCT/AU2013/001261 and is hereby incorporated in its entirety by reference.
All outcomes were evaluated by an experienced adjudicator blinded to the treatment allocation.
Patients with a history of bypass surgery were only eligible if they had undergone bypass surgery more than 10 years before, or had angiographic evidence of graft failure or had undergone stenting since their bypass surgery. All patients signed informed consent before randomization.
The randomization sequence was computer generated, kept concealed from the investigators at all times and was managed by a research assistant who had no involvement in the evaluation or management of study patients. Once the assistant received the consent form, the patients' demographic data were entered into the data base and the investigators and patients were advised in writing of the treatment group to which the patient had been assigned. […] Patients who were intolerant to therapy remained in the study, and were followed in the usual manner and included in the primary intention to treat analysis.
The drug was dispensed by their usual chemist, and if requested, patients were reimbursed for the cost of these scripts. All other treatments were continued as usual.
Patient compliance with treatment and outcome data were collected at routine follow up visits and at the time of any unplanned hospital admission. An acute coronary syndrome (ACS) was defined as either (a) Acute Myocardial Infarction (AMI), as evidenced by acute ischemic chest pain associated with a rise in serum troponin above the upper limit of normal or (b) Unstable Angina (UA), as evidenced by a recent acceleration of the patient's angina unassociated with a rise in serum troponin but associated with angiographic evidence of a change in the patient's coronary anatomy. (Unstable Angina Braunwald classification types IB and IIB). The ACS was characterized as being stent-related if there was evidence of significant in-stent stenosis or acute stent thrombosis. Out of Hospital Cardiac Arrest was defined as either a sudden death as evidenced on the patient's death certificate, or a non-fatal out of hospital cardiac arrest, defined as a recovery from sudden collapse associated with documented asystole, ventricular tachycardia or ventricular fibrillation. Noncardioembolic ischemic stroke was defined as CT or MRI proven ischemic stroke adjudged by the treating neurologist as not being due to atrial fibrillation or intracranial hemorrhage.
The primary efficacy outcome was the composite, ACS, fatal or non-fatal out of hospital cardiac arrest or non-cardio-embolic ischemic stroke. Secondary outcomes were (a) individual components of the primary outcome, and (b) the components of ACS unrelated to stent disease.
The pre-specified study duration was a minimum follow up of two years in all patients. Accordingly the study was closed on May 31, 2012. During May, all living patients were contacted by phone to collect compliance and outcome data from the last date of follow-up. Final outcome data were available in all patients and no patients were lost to follow up.
Summary statistics, including mean and standard deviation were calculated for all baseline characteristics by treatment arm. All time to event outcomes were calculated in days by subtracting the date of randomization from either: (1) the date of event or death; or (2) the trial termination date for those patients not experiencing the defined event. […]

[2] = test system: patients with a first episode of recurrent pericarditis; conditions: conventional treatment with aspirin plus colchicine 1.0-2.0 mg first day then 0.5-1.0 mg/d for 6 months; cited from earlier work

## COc1cc2c(c(OC)c1OC)-c1ccc(OC)c(=O)cc1[C@@H](NC(C)=O)CC2 [colchicine, N[5,6,7,9-tetrahydro-1,2,3,10-tetratmethoxy 9-oxobenzo[a]heptalen-7-yl],(S)-acetamide]
[1]; colchicine 0.5 mg/day vs control
  number needed to treat, primary outcome: 11
[1]; colchicine group (n=282), all of non-cardiac causes
  patients who died: 4 patients
[1]; of 282 randomized to colchicine 0.5 mg/day
  patients reporting early intolerance due to gastrointestinal side effects: 11%
[1]; patients compliant and tolerant to therapy beyond the first month
  patients with events, on-treatment analysis: 4.5%
[1]; treatment group vs control
  Out of hospital cardiac arrest and non-cardio-embolic ischemic stroke: also reduced in the treatment group
[2]
  recurrence rate, actuarial rate at 18 months: 24.0%
